Experimental data from ChEMBL document CHEMBL1201862, “PubChem BioAssay data set” (2004).
The source made the active and inactive calls.

Experiments:
[1] = M. tuberculosis H37Rv growth inhibitors, H37Rv strain (AID 1626); format: functional
[2] = target: Ras and Rab interactor 1/Tyrosine-protein kinase ABL1 (Homo sapiens, UniProt P00519+Q13671); format: functional;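 also: biochemical TR-FRET dose-response test measuring inhibition of binding between Rin1 and Abl proteins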
[3] = target: T1, Mannose-6-phosphate isomerase (Homo sapiens, UniProt P34949); assay: MPI inhibition at elevated mannose 6-phosphate – biochemical, fluorescence intensity, high mannose 6-phosphate, primary screen (AID 1220)
T1 sequence (P34949 whole entry): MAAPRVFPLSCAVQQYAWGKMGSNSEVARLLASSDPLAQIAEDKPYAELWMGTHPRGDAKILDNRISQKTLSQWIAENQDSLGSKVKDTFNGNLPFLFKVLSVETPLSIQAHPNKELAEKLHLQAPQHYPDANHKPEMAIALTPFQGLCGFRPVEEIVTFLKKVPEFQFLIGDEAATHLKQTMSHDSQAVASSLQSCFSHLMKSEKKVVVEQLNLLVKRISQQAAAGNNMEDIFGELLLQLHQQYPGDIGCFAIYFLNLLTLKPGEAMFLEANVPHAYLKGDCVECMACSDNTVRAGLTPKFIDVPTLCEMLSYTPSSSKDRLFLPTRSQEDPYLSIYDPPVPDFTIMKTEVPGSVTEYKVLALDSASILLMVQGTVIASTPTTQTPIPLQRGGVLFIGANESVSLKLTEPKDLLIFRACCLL

Genome polyprotein = Genome polyprotein (dengue virus type 2, UniProt P29990); assay: flavivirus cap methylation enzyme inhibition – biochemical, confirmation dose response, primary screen (AID 588689); format: functional
[4] = target: T1, Mannose-6-phosphate isomerase; assay: MPI enzyme activity inhibition – biochemical, fluorescence intensity, coupled assay, primary screen (AID 1209)
[5] = microbe, parasite or virus in culture; format: functional; conditions: Mycobacterium tuberculosis
[6] = A High Throughput Confirmatory Assay used to Identify Novel Compounds that Inhibit Mycobacterium Tuberculosis in the absence of Glycerol.; format: functional
[7] = target: Peroxisome proliferator-activated receptor gamma/Nuclear receptor coactivator 2 (Homo sapiens, UniProt P37231); format: functional;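 also: agonist potency for raising coactivator recruitment to the receptor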
[8] = target: Peroxisome proliferator-activated receptor gamma/Nuclear receptor coactivator 1 (Homo sapiens, UniProt P37231); format: functional;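 also: agonist potency as compounds enhance coactivator SRC-1 recruitment to PPARgamma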
[9] = target: Peroxisome proliferator-activated receptor gamma/Nuclear receptor coactivator 3 (Homo sapiens, UniProt P37231); format: functional;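 also: agonist potency for raising coactivator recruitment to the receptor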
[10] = target: Heat shock protein HSP 90-alpha (Homo sapiens, UniProt P07900); format: functional, organism-based
BJ [11] = assay: BJ-TERT-LT-ST fibroblast viability loss – cell-based, RAS-independent, luminescence, dose response (AID 1935); format: functional; conditions: Homo sapiens;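 also: BJ fibroblasts immortalized with TERT plus LT and ST oncogenes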
Escherichia coli [12] = assay: microbe, parasite or virus in culture
[13] = Luminescence-based dose response cell-based high throughput screening assay for cytotoxic compounds using the IEC-6 intestinal epithelial cell line. [Related pubchem assays: 1858 (Summary AID.), 1825 (Counterscreen.), 1907 (Confirmation screen.)]; format: functional
Vero = assay: mammalian cell viability reduction – secondary assay, cytotoxicity control for West Nile virus antiviral project, dose response (AID 1650); format: functional; conditions: Chlorocebus sabaeus
[14] = DRD fibroblast viability loss – cell-based, non-viral oncogenic, luminescence, dose response (AID 1934); format: functional; conditions: Homo sapiens
Escherichia coli [15] = assay: microbe, parasite or virus in culture; remark: listed apart in the source
BJ [16] = assay: growth inhibition of engineered Ras-driven BJ cells – cell-based, alamar blue fluorescence, cherrypicked samples, dose response (AID 2631); format: functional; conditions: Homo sapiens;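 also: confirmatory dose-response assay in RAS-dependent BJ fibroblasts engineered with TERT, LT and ST, with cytotoxicity read by fluorescence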
BJ [17] = assay: BJ-TERT fibroblast viability loss – cell-based, RAS-independent, luminescence, dose response (AID 1933); format: functional; conditions: Homo sapiens
Beta-galactosidase = Beta-galactosidase (Escherichia coli, UniProt Q8VNN2); assay: PubChem AID 485352; format: functional
[18] = target: T2, Type-1 angiotensin II receptor (Homo sapiens, UniProt P30556); assay: antagonism of angiotensin II type 1 receptor – cell-based, uHTS hits, selectivity assay for APJ receptor antagonist project, dose response (AID 463214); format: functional;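 also: antagonist potency against angiotensin II stimulated AT1 response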
T2 sequence (P30556 whole entry): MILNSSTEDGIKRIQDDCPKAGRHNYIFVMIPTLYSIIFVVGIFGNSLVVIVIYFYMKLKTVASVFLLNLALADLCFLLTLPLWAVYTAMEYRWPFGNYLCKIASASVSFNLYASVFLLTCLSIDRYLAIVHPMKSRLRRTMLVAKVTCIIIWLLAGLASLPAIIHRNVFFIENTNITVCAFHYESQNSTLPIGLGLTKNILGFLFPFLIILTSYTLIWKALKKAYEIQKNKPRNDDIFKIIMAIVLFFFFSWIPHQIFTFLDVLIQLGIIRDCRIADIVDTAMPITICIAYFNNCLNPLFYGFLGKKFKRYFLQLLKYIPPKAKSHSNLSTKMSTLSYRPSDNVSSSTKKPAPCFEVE

BJ [19] = assay: cells; format: functional, cell-based; conditions: Homo sapiens
Bcl-2-related protein A1 [20] = target: T3, Bcl-2-related protein A1 (Mus musculus, UniProt Q07440); assay: small-molecule antagonists of Bfl-1/BH3 interaction – biochemical, TR-FRET, mouse Bfl-1, confirmation (AID 621);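 also: TR-FRET binding of GST-Bfl-1 to FITC-labelled Bid peptide via terbium antibody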
T3 sequence (Q07440 whole entry): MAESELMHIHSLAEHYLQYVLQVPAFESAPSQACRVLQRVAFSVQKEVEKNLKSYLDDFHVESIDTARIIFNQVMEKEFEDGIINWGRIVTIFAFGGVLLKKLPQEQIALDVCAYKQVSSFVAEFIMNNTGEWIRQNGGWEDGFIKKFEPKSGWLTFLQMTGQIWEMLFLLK

Bcl-2-related protein A1 [21] = target: T3, Bcl-2-related protein A1; assay: displacement of Bid BH3 peptide from Bfl-1 – biochemical, fluorescence polarization, FITC-Bid, mouse, primary screen (AID 432)
[22] = nonselective StAR promoter luciferase inhibitors – cell-based, luminescence, luciferase reporter, counter-screen for LRH-1 inverse agonist project, dose response (AID 651969); format: functional
Steroidogenic factor 1 = Steroidogenic factor 1 (Homo sapiens, UniProt Q13285); assay: Counterscreen for inverse agonists of the liver receptor homolog-1 (LRH-1; NR5A2): Luminescence-based cell-based high throughput dose response assay to identify inverse agonists of the Steroidogenic Factor 1 Nuclear Receptor (SF1; NR5A1).; format: functional
[23] = mitochondrial function rescue without frataxin homolog – Friedreich's ataxia, plus single-dose screen, dose response (AID 1465); format: functional;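 also: yeast depleted of Yfh1p frataxin homolog grown on glycerol needing respiration; WST-1 tetrazolium dye reduction as measure of cellular dehydrogenase metabolic activity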
[24] = target: Nuclear receptor subfamily 5 group A member 2 (Homo sapiens, UniProt O00482); format: functional, cell-based;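 also: HEK293T cells transfected with LRH-1 and a StAR promoter luciferase reporter; potency for inhibitors that lower LRH-1 driven reporter light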
Sequence of Nuclear receptor subfamily 5 group A member 2 (O00482 whole entry): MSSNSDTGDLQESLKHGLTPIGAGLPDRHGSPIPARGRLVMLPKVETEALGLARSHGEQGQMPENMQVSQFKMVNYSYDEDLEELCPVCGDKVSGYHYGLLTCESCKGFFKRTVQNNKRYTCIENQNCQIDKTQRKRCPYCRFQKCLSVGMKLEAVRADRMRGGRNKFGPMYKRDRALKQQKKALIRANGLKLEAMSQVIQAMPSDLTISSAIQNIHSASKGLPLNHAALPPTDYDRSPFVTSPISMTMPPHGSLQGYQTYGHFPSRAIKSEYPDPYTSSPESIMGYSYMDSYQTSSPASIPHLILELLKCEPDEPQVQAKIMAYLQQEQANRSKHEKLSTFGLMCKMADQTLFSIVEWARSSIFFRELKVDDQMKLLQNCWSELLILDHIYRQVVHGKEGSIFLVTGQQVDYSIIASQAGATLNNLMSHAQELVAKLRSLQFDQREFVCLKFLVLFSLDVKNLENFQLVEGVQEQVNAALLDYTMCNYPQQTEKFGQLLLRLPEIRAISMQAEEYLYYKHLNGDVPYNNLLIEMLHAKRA

Sequence of Steroidogenic factor 1 (Q13285 whole entry): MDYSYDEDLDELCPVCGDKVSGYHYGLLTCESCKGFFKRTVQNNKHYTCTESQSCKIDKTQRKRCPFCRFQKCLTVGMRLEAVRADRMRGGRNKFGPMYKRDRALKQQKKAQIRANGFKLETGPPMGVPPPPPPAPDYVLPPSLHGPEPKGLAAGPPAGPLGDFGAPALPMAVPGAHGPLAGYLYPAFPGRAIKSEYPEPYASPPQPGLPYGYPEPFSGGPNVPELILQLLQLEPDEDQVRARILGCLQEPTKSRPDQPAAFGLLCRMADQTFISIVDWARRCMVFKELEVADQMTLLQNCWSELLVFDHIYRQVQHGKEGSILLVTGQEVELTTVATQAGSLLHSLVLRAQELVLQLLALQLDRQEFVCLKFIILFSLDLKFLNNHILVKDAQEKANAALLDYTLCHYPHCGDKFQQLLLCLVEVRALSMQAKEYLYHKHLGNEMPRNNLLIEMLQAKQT
Sequence of Genome polyprotein (P29990 2492-3391 limits assumed): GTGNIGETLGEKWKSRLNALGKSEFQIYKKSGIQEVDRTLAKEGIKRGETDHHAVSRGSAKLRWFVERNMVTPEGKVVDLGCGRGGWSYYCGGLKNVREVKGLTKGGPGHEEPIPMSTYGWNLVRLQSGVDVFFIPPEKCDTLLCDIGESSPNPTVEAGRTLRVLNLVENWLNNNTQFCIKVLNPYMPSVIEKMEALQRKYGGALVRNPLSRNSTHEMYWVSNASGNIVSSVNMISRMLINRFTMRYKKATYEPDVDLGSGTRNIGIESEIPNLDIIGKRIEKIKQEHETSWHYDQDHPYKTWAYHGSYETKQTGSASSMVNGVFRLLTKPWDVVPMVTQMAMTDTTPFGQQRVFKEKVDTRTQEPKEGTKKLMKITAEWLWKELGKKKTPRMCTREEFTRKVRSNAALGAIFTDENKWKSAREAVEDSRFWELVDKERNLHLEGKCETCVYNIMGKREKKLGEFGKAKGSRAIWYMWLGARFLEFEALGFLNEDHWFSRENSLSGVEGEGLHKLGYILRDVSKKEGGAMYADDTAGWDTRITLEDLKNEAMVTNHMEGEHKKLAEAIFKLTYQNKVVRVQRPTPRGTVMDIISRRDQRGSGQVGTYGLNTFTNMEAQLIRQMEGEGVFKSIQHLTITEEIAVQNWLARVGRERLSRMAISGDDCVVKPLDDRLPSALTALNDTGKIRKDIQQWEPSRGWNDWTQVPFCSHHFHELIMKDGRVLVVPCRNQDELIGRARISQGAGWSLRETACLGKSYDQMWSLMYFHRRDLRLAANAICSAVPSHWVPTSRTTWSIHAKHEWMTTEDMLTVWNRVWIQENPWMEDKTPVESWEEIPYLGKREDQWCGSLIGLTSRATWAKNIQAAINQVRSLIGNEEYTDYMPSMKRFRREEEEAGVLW
Sequence of Ras and Rab interactor 1/Tyrosine-protein kinase ABL1 (P00519 whole entry): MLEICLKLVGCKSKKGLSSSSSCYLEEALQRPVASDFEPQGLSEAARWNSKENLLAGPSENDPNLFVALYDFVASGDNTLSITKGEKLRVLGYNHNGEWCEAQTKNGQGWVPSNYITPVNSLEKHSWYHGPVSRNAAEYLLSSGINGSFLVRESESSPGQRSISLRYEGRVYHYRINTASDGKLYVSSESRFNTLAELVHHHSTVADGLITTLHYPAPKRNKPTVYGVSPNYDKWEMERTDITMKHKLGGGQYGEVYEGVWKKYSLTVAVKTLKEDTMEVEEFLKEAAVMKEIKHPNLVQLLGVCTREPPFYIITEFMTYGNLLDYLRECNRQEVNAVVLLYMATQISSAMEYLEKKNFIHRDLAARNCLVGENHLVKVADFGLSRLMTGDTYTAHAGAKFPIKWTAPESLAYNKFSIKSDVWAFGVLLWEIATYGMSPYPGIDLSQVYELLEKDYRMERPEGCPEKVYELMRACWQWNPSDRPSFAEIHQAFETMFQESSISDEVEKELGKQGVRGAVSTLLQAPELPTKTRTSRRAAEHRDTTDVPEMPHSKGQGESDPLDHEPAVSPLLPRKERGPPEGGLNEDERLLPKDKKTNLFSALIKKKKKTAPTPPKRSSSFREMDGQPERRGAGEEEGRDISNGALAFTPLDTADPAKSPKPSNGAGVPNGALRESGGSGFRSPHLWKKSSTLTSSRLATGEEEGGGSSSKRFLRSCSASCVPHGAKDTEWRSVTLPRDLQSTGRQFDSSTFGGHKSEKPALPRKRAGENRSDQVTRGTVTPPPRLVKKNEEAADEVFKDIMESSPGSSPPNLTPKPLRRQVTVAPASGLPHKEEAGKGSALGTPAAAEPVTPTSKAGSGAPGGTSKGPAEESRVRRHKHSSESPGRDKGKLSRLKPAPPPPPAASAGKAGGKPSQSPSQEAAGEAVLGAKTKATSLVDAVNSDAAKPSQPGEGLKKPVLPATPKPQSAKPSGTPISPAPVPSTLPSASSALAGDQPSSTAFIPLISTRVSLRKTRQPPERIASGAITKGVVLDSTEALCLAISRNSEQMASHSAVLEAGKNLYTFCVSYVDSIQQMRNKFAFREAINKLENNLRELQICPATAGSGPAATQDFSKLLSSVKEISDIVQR
Sequence of Ras and Rab interactor 1/Tyrosine-protein kinase ABL1 (Q13671 whole entry): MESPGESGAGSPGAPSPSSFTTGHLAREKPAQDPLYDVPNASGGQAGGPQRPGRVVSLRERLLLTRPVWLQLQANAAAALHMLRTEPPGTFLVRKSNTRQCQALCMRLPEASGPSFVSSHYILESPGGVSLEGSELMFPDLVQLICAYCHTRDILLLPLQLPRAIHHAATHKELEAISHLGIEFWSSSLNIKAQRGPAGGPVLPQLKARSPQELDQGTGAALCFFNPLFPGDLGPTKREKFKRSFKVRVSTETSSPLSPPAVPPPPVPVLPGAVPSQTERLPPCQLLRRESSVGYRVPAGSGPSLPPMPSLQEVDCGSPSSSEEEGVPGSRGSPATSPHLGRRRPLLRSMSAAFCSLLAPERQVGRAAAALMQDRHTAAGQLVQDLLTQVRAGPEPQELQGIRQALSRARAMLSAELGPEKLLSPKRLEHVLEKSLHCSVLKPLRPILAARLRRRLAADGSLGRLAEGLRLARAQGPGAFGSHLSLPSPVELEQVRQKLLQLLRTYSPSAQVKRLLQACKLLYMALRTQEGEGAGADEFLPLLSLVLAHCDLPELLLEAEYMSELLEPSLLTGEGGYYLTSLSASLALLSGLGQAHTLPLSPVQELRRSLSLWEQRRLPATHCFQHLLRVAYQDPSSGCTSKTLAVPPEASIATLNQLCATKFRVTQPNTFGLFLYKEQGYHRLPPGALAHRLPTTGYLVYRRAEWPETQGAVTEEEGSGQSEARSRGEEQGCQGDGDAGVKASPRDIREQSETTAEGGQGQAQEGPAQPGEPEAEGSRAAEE
Sequence of Beta-galactosidase (Q8VNN2 whole entry): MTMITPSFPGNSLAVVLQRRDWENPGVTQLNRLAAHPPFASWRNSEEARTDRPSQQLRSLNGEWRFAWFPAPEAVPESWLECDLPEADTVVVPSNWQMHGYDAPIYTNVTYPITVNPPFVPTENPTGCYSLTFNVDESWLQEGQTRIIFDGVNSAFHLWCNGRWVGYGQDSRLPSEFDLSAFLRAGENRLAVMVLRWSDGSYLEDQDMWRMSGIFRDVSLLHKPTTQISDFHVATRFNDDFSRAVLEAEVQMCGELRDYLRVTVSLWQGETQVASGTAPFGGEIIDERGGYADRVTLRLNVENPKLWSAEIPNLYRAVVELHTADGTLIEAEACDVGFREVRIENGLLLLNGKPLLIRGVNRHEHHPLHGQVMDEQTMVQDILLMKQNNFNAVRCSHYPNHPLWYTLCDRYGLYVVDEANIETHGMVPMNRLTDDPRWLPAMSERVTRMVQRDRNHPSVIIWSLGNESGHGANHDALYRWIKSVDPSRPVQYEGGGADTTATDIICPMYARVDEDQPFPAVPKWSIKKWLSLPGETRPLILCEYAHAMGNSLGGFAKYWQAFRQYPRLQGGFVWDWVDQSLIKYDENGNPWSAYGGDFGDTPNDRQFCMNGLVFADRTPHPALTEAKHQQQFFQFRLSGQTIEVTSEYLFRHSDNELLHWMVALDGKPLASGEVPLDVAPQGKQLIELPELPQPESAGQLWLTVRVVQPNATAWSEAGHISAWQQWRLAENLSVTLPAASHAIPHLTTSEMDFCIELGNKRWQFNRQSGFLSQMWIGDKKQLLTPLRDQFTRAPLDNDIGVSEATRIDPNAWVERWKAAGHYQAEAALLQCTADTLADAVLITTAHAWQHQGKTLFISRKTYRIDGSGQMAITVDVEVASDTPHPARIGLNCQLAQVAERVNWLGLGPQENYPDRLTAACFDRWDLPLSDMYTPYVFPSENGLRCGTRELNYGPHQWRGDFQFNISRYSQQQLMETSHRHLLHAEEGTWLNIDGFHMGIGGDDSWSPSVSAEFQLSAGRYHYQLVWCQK

O=C(CSC1=NCCS1)Nc1ccc2ccccc2c1
IC50 [1]: > 100 µM (active)

Oc1ccc(/C=N/N2CCOCC2)c(O)c1O
IC50 [2]: > 73.5 µM (inactive) | IC50 [3]: 10.3 µM (active) | IC50 (Genome polyprotein): 45 µM (active) | IC50 [4]: 11.6 µM (active)

Cc1ccc(-c2noc(=O)n2CC(=O)c2ccc(Cl)cc2)cc1
CC50 [5]: > 40 µM (active) | IC50 [6]: > 50 µM (active)

O=C(COc1ccccc1-c1ccccc1)NCc1ccco1
EC50 [7]: > 79.4 µM (not active) | EC50 [8]: > 79.4 µM (not active) | EC50 [9]: > 79.4 µM (not active)

Cc1ccc(C(=O)Sc2cccccc2=O)cc1
AC50 [10]: 6.06 µM (active) | EC50 (BJ [11]): 54.9 µM (active) | AC50 (Escherichia coli [12]): 17 µM (active) | IC50 [13]: 0.848 µM (active) | CC50 (Vero): 48.4 µM (active) | EC50 [14]: 25.5 µM (active) | AC50 (Escherichia coli [15]): 12.7 µM (active) | EC50 (BJ [16]): 0.075 µM (active) | EC50 (BJ [17]): 0.659 µM (inconclusive) | CC50 [5]: 11.5 µM (active) | EC50 (Beta-galactosidase): > 40 µM (inactive) | IC50 [18]: < 1.25 µM (active) | EC50 (BJ [19]): 26 µM (active)

C1=C(c2ccc(-c3ccccc3)cc2)Nc2ncnn2C1c1ccco1 (centres undefined)
IC50 (Bcl-2-related protein A1 [20]): > 100 µM (not active) | IC50 (Bcl-2-related protein A1 [21]): > 100 µM (not active)

CC1CCCN(c2cc(N(C)CCO)c([N+](=O)[O-])c3nonc23)C1 (centres undefined)
IC50 [22]: 35.9 µM (inactive) | IC50 (Steroidogenic factor 1): 7.01 µM (active) | EC50 [23]: > 100 µM (active) | IC50 [24]: 12.3 µM (inactive)
